Assay results published in article PMC9525761, “Cytotoxicity and Genotoxicity of Biogenic Silver Nanoparticles in A549 and BEAS-2B Cell Lines” (Bioinorganic Chemistry and Applications, 2022).
Read-outs that look alike come from different tables or passages of the source.

Tests used:
Type in all cases: cell-based, human
BEAS-2B cells [1] = assay: MTT cytotoxicity assay, BEAS-2B cells; conditions: for IC50: table prints none, read-out: average IC50, BEAS-2B cells (mean ± SD)
A549 cells [2] = assay: Comet Assay DNA damage, A549 cells; parameters: key to DNA damage class (comet visual scoring, Classes 0–4): Class 4: Classes 0–4 to be used for visual scoring. The increased number of classes represents the increase in DNA damage severity; Class 3: Classes 0–4 to be used for visual scoring. The increased number of classes represents the increase in DNA damage severity; Class 2: Classes 0–4 to be used for visual scoring. The increased number of classes represents the increase in DNA damage severity; conditions: for DNA damage class (comet visual scoring, Classes 0–4): IC50 for 24 h (H2O2: 100 μM); for % DNA in tail / Olive tail moment / Tail length (px): IC50 for 24 h (H2O2: 100 μM, 20 minutes)
Procedure: (§1) The Comet Assay® kit (Trevigen, Inc, USA) was used to perform DNA damage activity analysis. […] After being detached by Accutase (BD™Bioscience, USA), the cells were collected and washed with ice-cold PBS. […] The cells were then lysed in the lysis solution at 4°C for 30 minutes. Then, the cells were kept in an alkaline unwinding solution at room temperature for 20 minutes to allow the DNA to unwind. The test was immediately followed by electrophoresis, performed at 21 V and 300 mA for 30 minutes. Slides were washed in 70% ethanol and water and stained with SYBR® gold nucleic acid gel stain (Invitrogen, Thermo Fisher Scientific, USA) before visualisation under the Olympus IX71 inverted fluorescence microscope (Olympus, Tokyo, Japan). A total of 50 cells were randomly selected and captured per sample at 100× magnification and analysed using the Open Comet Image J available at https:/www.cometbio.org/. Tail length, percentage of tail DNA, and Olive Tail Moment (OTM) were calculated for DNA damage assessment.

A549 cells [3] = assay: Apoptosis by DAPI and AO/PI double staining, A549 cells; conditions: A549, IC50, 24 hours
Procedure: (§2) DAPI staining is used to assess apoptosis-related morphological changes such as nuclear fragmentation or condensation. […] AO stains both live and dead cells, whereas PI stains only the dead cells. […] Following incubation, the cells were washed with PBS and then fixed with 1 mL of 4% paraformaldehyde (Sigma-Aldrich, St. Louis, Missouri, USA) and cold 70% ethanol for 10 minutes at room temperature. Then, the cells were stained with a 1 : 1 ratio of 10 µg/mL of DAPI (Nacalai, Tesque chemical, Kyoto, Japan) and 10 μg/mL acridine orange/propidium iodide (Sigma-Aldrich, St. Louis, Missouri, USA) and incubated for 30 minutes in the dark. An Olympus IX71 inverted fluorescence microscope (Olympus, Tokyo, Japan) was used to observe and record the morphology of the cells.

BEAS-2B cells [4] = assay: Apoptosis by DAPI and AO/PI double staining, BEAS-2B cells; conditions: IC50, 24 hours
Procedure: as §2

BEAS-2B cells [5] = assay: Intracellular ROS, CM-H2DCFDA assay, BEAS-2B cells; conditions: treated with IC50 for 24 hours, control (untreated cells) set to 1
Procedure: (§3) After exposure, cells were washed with PBS and loaded with 2.5 μM of CM-H2DCFDA in phenol red and FBS-free media in the dark for 30 minutes at 37°C. Subsequently, the reaction mixture was aspirated; cells were washed with fresh culture media and replaced with 100 μL of culture media. The DCF fluorescence intensity was measured at 485 nm excitation and 520 nm emission using a FLUOstar Omega fluorescence plate reader (BMG Labtech, Ortenberg, Germany). Results are presented as mean fold change ± standard deviation of three independent experiments.

A549 cells [6] = assay: MTT cytotoxicity assay, A549 cells (with selectivity index); conditions: for Selectivity index (SI): IC50 normal cells (BEAS-2B) / IC50 cancer cells (A549); for IC50: table prints none, read-out: average IC50, A549 cells (mean ± SD)
Procedure: Both A549 and BEAS-2B cells were originally purchased from the American Type Culture Collection (ATCC, USA). Both cells were cultured in Dulbecco's Modified Eagle's Medium (DMEM: Gibco, USA) and 1 : 1 mixture of DMEM and Ham's F-12 (DMEM-F12; Gibco, USA) medium with phenol red and supplemented with 10% fetal bovine serum (FBS; Gibco, USA), 0.1% (v/v) penicillin-streptomycin, and 2 mM L-glutamine (PenStrep; Gibco, USA). The cell lines were maintained in a humidified environment at 37°C with 5% CO2.
The culture medium alone (without cells) was included as a blank for this test. A549 and BEAS-2B cells were treated with Cisplatin as a positive control. A total of 10 μL of MTT solution (5 mg/mL) was applied to each well at about 24 to 72 hours after treatment and was further incubated for 4 hours in the dark at 37°C with 5% CO2. Upon incubation, the mixture solution was aspirated, and 100 μL of dimethyl sulfoxide (DMSO) (Fisher Scientific, USA) was added to solubilise the purple formazan. The optical density (O.D.) of each sample was measured at a 570 nm wavelength using a microplate reader (BioTek Instruments, Inc, USA). The percentage (%) of cell viability was determined using the following formula [37]:(1) Cell viability%=O.D.treatment–O.D.blank/O.D.untreated cell–O.D.blank×100%.
Based on the measured cell viability (%), a graph was created to display the dose-response curves for each cell line. […] The data was expressed as a mean and standard deviation with each experiment consisting of triplicates. Statistical differences between untreated cells and treated cells were determined using Student's t-test (IBM SPSS Statistics 27).

A549 cells [7] = assay: Intracellular ROS, CM-H2DCFDA assay, A549 cells; conditions: A549, treated with IC50 for 24 hours; control (untreated cells) set to 1
Procedure: as §3

BEAS-2B cells [8] = assay: Comet Assay DNA damage, BEAS-2B cells; parameters: key to DNA damage class (comet visual scoring, Classes 0–4): Class 4: Classes 0–4 to be used for visual scoring. The increased number of classes represents the increase in DNA damage severity; Class 3: Classes 0–4 to be used for visual scoring. The increased number of classes represents the increase in DNA damage severity; Class 2: Classes 0–4 to be used for visual scoring. The increased number of classes represents the increase in DNA damage severity; conditions: for DNA damage class (comet visual scoring, Classes 0–4): IC50 for 24 h (H2O2: 100 μM); for % DNA in tail / Olive tail moment / Tail length (px): IC50 for 24 h (H2O2: 100 μM, 20 minutes)
Procedure: as §1

SMILES	IC50 (BEAS-2B cells [1]; 24 h) [µM]	IC50 (BEAS-2B cells [1]; 48 h) [µM]	IC50 (BEAS-2B cells [1]; 72 h) [µM]	DNA damage class (comet visual scoring, Classes 0–4) (A549 cells [2])	% DNA in tail (A549 cells [2]) [%]	Olive tail moment (A549 cells [2])	Tail length (px) (A549 cells [2])	DNA damage class (comet visual scoring, Classes 0–4) (BEAS-2B cells [8])	% DNA in tail (BEAS-2B cells [8]) [%]	Olive tail moment (BEAS-2B cells [8])	Tail length (px) (BEAS-2B cells [8])	further results
O=[N+]([O-])[O-].[Ag+] [AgNO3, silver nitrate]	16 ± 0.03	15 ± 0.02	14 ± 0.02									concentrations decreasing proliferation of BEAS-2B cells to nearly 50% (BEAS-2B cells [1]; after 24 to 74 hours of treatment (so in the source)): 20 to 100 µM
N.N.[Cl][Pt][Cl] [Cisplatin]	69.2 ± 1.75	31.6 ± 3.27	18.84 ± 0.13	Class 3	48.26 ± 4.54	28.81 ± 4.94	73.83 ± 8.9	Class 4	63.79 ± 3.01	78.49 ± 0.8	160.07 ± 3.3	mode of cell death (DAPI, AO/PI staining), in words (A549 cells [3]): induce apoptosis; mode of cell death (DAPI, AO/PI staining), in words (BEAS-2B cells [4]): induce apoptosis; ROS level, DCF fold (BEAS-2B cells [5]): 1.23 ± 0.01 fold change; Selectivity index (SI) (A549 cells [6]; 24 h): 1.32; Selectivity index (SI) (A549 cells [6]; 48 h): 1.66; Selectivity index (SI) (A549 cells [6]; 72 h): 1.08; IC50 (A549 cells [6]; MTT, 24 h): 52.5 ± 7.92 µM; IC50 (A549 cells [6]; MTT, 48 h): 19.1 ± 3.19 µM; IC50 (A549 cells [6]; MTT, 72 h): 17.5 ± 0.6 µM; concentration at which A549 cells were significantly dead (A549 cells [6]; MTT, all three time points (24, 48, 72 h)): 50 µM; ROS level, DCF fold (A549 cells [7]): 1.16 ± 0.04 fold change; concentration at which BEAS-2B cells were significantly dead (BEAS-2B cells [1]; all three time points (24, 48, 72 h)): 65 µM
OO [H2O2]				Class 2	35.64 ± 9.31	9.51 ± 3.49	25.3 ± 6.96	Class 4	85.86 ± 2.71	27.63 ± 4.6	53.91 ± 9.95	
